Assay results: PubChem BioAssay (NCI)
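How tested: cells in 96-well plates exposed to compound for 48 hours at five concentrations. GI50: concentration for 50% inhibition of growth. TGI: total growth inhibition.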

Experiments:
Experiment in all cases: NCI-60 cell line screen, 48 h
HL-60(TB) leukemia = test system: HL-60(TB) leukemia
CCRF-CEM leukemia = test system: CCRF-CEM leukemia
NCI-H226 lung = test system: NCI-H226 lung
NCI/ADR-RES ovarian = test system: NCI/ADR-RES ovarian
HT29 colon = test system: HT29 colon
RXF 393 renal = test system: RXF 393 renal
SNB-19 CNS = test system: SNB-19 CNS
NCI-H460 lung = test system: NCI-H460 lung
SK-OV-3 ovarian = test system: SK-OV-3 ovarian
DU-145 prostate = test system: DU-145 prostate
SNB-75 CNS = test system: SNB-75 CNS
HCT-15 colon = test system: HCT-15 colon
EKVX NSCLC = test system: EKVX NSCLC
MDA-MB-435 = test system: MDA-MB-435
OVCAR-5 ovarian = test system: OVCAR-5 ovarian
HOP-62 NSCLC = test system: HOP-62 NSCLC
T-47D breast = test system: T-47D breast
HCC-2998 colon = test system: HCC-2998 colon
HCT-116 colon = test system: HCT-116 colon
MDA-MB-231 breast = test system: MDA-MB-231 breast
A549 NSCLC = test system: A549 NSCLC
HS 578T breast = test system: HS 578T breast
BT-549 breast = test system: BT-549 breast
SF-539 CNS = test system: SF-539 CNS
UACC-257 melanoma = test system: UACC-257 melanoma
PC-3 prostate = test system: PC-3 prostate
OVCAR-3 ovarian = test system: OVCAR-3 ovarian
786-0 renal = test system: 786-0 renal
SF-268 CNS = test system: SF-268 CNS
U251 CNS = test system: U251 CNS
K-562 leukemia = test system: K-562 leukemia
OVCAR-8 ovarian = test system: OVCAR-8 ovarian
HOP-92 NSCLC = test system: HOP-92 NSCLC
SN12C renal = test system: SN12C renal
SK-MEL-28 melanoma = test system: SK-MEL-28 melanoma
LOX IMVI melanoma = test system: LOX IMVI melanoma
COLO 205 colon = test system: COLO 205 colon
NCI-H23 lung = test system: NCI-H23 lung
SR leukemia = test system: SR leukemia
SW-620 colon = test system: SW-620 colon
MCF7 breast = test system: MCF7 breast
UACC-62 melanoma = test system: UACC-62 melanoma
UO-31 renal = test system: UO-31 renal
M14 melanoma = test system: M14 melanoma
MOLT-4 leukemia = test system: MOLT-4 leukemia
SK-MEL-5 melanoma = test system: SK-MEL-5 melanoma
OVCAR-4 ovarian = test system: OVCAR-4 ovarian
TK-10 renal = test system: TK-10 renal
ACHN renal = test system: ACHN renal
SF-295 CNS = test system: SF-295 CNS
KM12 colon = test system: KM12 colon
SK-MEL-2 melanoma = test system: SK-MEL-2 melanoma
A498 renal = test system: A498 renal
IGROV1 ovarian = test system: IGROV1 ovarian
MALME-3M melanoma = test system: MALME-3M melanoma
RPMI-8226 leukemia = test system: RPMI-8226 leukemia
NCI-H522 lung = test system: NCI-H522 lung

## Oc1c(Cl)c(Cl)c(Cl)c(Cl)c1Cl
HL-60(TB) leukemia
  TGI: 36.9 µM
CCRF-CEM leukemia
  TGI: 48.3 µM
NCI-H226 lung
  TGI: 56.9 µM

## CCCCc1n(Cc2ccc3ccccc3n2)cc[n+]1Cc1ccc2ccccc2n1
NCI/ADR-RES ovarian
  GI50: > 100 µM
  TGI: > 100 µM
HT29 colon
  GI50: 0.801 µM
  TGI: 7.89 µM
RXF 393 renal
  GI50: 4.17 µM
  TGI: 16.5 µM
SNB-19 CNS
  GI50: 0.826 µM
  TGI: 12.9 µM
NCI-H460 lung
  GI50: 1.87 µM
  TGI: 11.3 µM
SK-OV-3 ovarian
  GI50: 2 µM
  TGI: 7.23 µM
DU-145 prostate
  GI50: 3.27 µM
  TGI: 16.2 µM
SNB-75 CNS
  GI50: 0.889 µM
  TGI: 6.01 µM
HCT-15 colon
  GI50: 14.8 µM
  TGI: 31.5 µM
EKVX NSCLC
  GI50: 2.58 µM
  TGI: 20.2 µM
MDA-MB-435
  GI50: 0.71 µM
  TGI: 7.78 µM
OVCAR-5 ovarian
  GI50: 2.66 µM
  TGI: 13.7 µM
HOP-62 NSCLC
  GI50: 2.72 µM
  TGI: 11.1 µM
T-47D breast
  GI50: 0.375 µM
  TGI: 6.01 µM
HCC-2998 colon
  GI50: 0.813 µM
  TGI: 10.4 µM
HCT-116 colon
  GI50: 2.1 µM
  TGI: 11 µM
HL-60(TB) leukemia
  GI50: 0.295 µM
  TGI: 1.11 µM
MDA-MB-231 breast
  GI50: 1.77 µM
  TGI: 9.35 µM
A549 NSCLC
  GI50: 4.75 µM
  TGI: 18.6 µM
HS 578T breast
  GI50: 2.76 µM
  TGI: 16.5 µM
BT-549 breast
  GI50: 0.97 µM
  TGI: 5.86 µM
CCRF-CEM leukemia
  GI50: 1.59 µM
  TGI: 13.9 µM
SF-539 CNS
  GI50: 1.8 µM
  TGI: 12.6 µM
UACC-257 melanoma
  GI50: 0.543 µM
  TGI: 4.32 µM
PC-3 prostate
  GI50: 1.51 µM
  TGI: 10.6 µM
OVCAR-3 ovarian
  GI50: 0.698 µM
  TGI: 10.7 µM
786-0 renal
  GI50: 4.65 µM
  TGI: 17.3 µM
SF-268 CNS
  GI50: 2.18 µM
  TGI: 14.3 µM
U251 CNS
  GI50: 0.925 µM
  TGI: 12.4 µM
K-562 leukemia
  GI50: 0.621 µM
  TGI: 12.3 µM
OVCAR-8 ovarian
  GI50: 2.73 µM
  TGI: 12 µM
HOP-92 NSCLC
  GI50: 0.491 µM
  TGI: 4.34 µM
SN12C renal
  GI50: 1.41 µM
  TGI: 11.1 µM
SK-MEL-28 melanoma
  GI50: 1.05 µM
  TGI: 12.2 µM
LOX IMVI melanoma
  GI50: 1.52 µM
  TGI: 4.67 µM
COLO 205 colon
  GI50: 0.535 µM
  TGI: 2.28 µM
NCI-H23 lung
  GI50: 0.499 µM
  TGI: 8.54 µM
SR leukemia
  GI50: 0.537 µM
  TGI: 4.87 µM
SW-620 colon
  GI50: 2.56 µM
  TGI: 13.7 µM
MCF7 breast
  GI50: 0.807 µM
  TGI: 11.2 µM
UACC-62 melanoma
  GI50: 0.749 µM
  TGI: 3.56 µM
UO-31 renal
  GI50: 11.7 µM
  TGI: 24.5 µM
NCI-H226 lung
  GI50: 2.26 µM
  TGI: 11.8 µM
M14 melanoma
  GI50: 1.71 µM
  TGI: 10.2 µM
MOLT-4 leukemia
  GI50: 1.81 µM
  TGI: 11 µM
SK-MEL-5 melanoma
  GI50: 0.827 µM
  TGI: 2.21 µM
OVCAR-4 ovarian
  GI50: 0.381 µM
  TGI: 13.5 µM
TK-10 renal
  GI50: 2.5 µM
  TGI: 10.3 µM
ACHN renal
  GI50: 17 µM
  TGI: 42 µM
SF-295 CNS
  GI50: 2.45 µM
  TGI: 9.88 µM
KM12 colon
  GI50: 0.742 µM
  TGI: 6.19 µM
SK-MEL-2 melanoma
  GI50: 1.43 µM
  TGI: 5.58 µM
A498 renal
  GI50: 3.01 µM
  TGI: 12.9 µM
IGROV1 ovarian
  GI50: 1.17 µM
  TGI: 10.9 µM
MALME-3M melanoma
  GI50: 0.946 µM
  TGI: 7.03 µM
RPMI-8226 leukemia
  GI50: 0.295 µM
  TGI: 3.28 µM
NCI-H522 lung
  GI50: 0.445 µM
  TGI: 4.99 µM
